Data from PubChem BioAssay AID228 (DTP/NCI, 2004).
Several values for one entry are separate records, joined by “and”; a condition that tells them apart may be missing. Identical values can stand only once. Results filed as inconclusive are left out. Starred links: 1 amine or outer side, 2 acyl side, 3 side chain; linkers in the order of their positions; H or OH if unused. Positions of bridges follow the written chain, without caps; N, C: chain ends. Non-standard residues stand in square brackets, D forms with d. Residues, ends and D or L forms follow the SMILES beside them. *: point of attachment. X1 = CC(C)C(C)C(C(=O)[*:2])N(C)[*:1]; Picolinoyl(3-OH) = O=C(c1ncccc1O)*; NMePhg = CN[CH](C(=O)O)c1ccccc1; Hyp = O=C(O)[CH]1C[CH](O)CN1; Sar = CNCC(=O)O

Test system: BDF1 mice, Friend leukemia sc, tumor weight T/C
Test: NCI In Vivo Anticancer Drug Screen. Data for tumor model Friend Virus Leukemia (Solid) (subcutaneous) in B6D2F1 (BDF1) mice
Settings: endpoint: mean tumor weight, higher = larger tumour
Description: The antitumor activity of compounds was measured in mice bearing transplantable tumors. Survival or tumor size were measured and the results are expressed as the measurement made in the treated group (T) divided by the measurement made in the vehicle treated control group (C). The tumor model used in this assay is Friend Virus Leukemia (Solid) (subcutaneous) in B6D2F1 (BDF1) mice

[1] = dose: 6.0 mg/kg/injection, schedule: Q01DX011 (ip), vehicle: carboxymethylcellulose (CMC)
[2] = dose: 10.0 mg/kg/injection, schedule: Q01DX011 (ip), vehicle: carboxymethylcellulose (CMC)
[3] = dose: 19.0 mg/kg/injection, schedule: Q01DX011 (ip), vehicle: carboxymethylcellulose (CMC)
[4] = dose: 37.5 mg/kg/injection, schedule: Q01DX011 (ip), vehicle: carboxymethylcellulose (CMC)
[5] = dose: 75.0 mg/kg/injection, schedule: Q01DX011 (ip), vehicle: carboxymethylcellulose (CMC)
[6] = dose: 50.0 mg/kg/injection, schedule: Q01DX011 (ip), vehicle: carboxymethylcellulose (CMC)
[7] = dose: 125.0 mg/kg/injection, schedule: Q01DX011 (ip), vehicle: carboxymethylcellulose (CMC)
[8] = dose: 250.0 mg/kg/injection, schedule: Q01DX011 (ip), vehicle: carboxymethylcellulose (CMC)
[9] = dose: 500.0 mg/kg/injection, schedule: Q01DX011 (ip), vehicle: carboxymethylcellulose (CMC)
[10] = dose: 25.0 mg/kg/injection, schedule: Q01DX011 (ip), vehicle: carboxymethylcellulose (CMC)
[11] = dose: 100.0 mg/kg/injection, schedule: Q01DX011 (ip), vehicle: carboxymethylcellulose (CMC)
[12] = dose: 50.0 mg/kg/injection, schedule: Q01DX011 (ip), vehicle: saline
[13] = dose: 2.0 mg/kg/injection, schedule: Q01DX011 (ip), vehicle: carboxymethylcellulose (CMC)
[14] = dose: 4.0 mg/kg/injection, schedule: Q01DX011 (ip), vehicle: carboxymethylcellulose (CMC)

SMILES: CC(C)CCCCCCCCCCCCC(=O)NCC(=O)NC1C(O)C(O)C(Nc2ncnc3nc[nH]c23)OC1C(O)CO (configuration not stated)
- T/C (dose: 0.4 mg/kg/injection, schedule: Q01DX011 (ip), vehicle: carboxymethylcellulose (CMC)): 93 % of control
- T/C (dose: 0.6 mg/kg/injection, schedule: Q01DX011 (ip), vehicle: carboxymethylcellulose (CMC)): 83 % of control
- T/C (dose: 0.9 mg/kg/injection, schedule: Q01DX011 (ip), vehicle: carboxymethylcellulose (CMC)): 52 % of control
- T/C (dose: 1.35 mg/kg/injection, schedule: Q01DX011 (ip), vehicle: carboxymethylcellulose (CMC)): 50 % of control
- T/C (dose: 1.35 mg/kg/injection, schedule: Q01DX011 (ip), vehicle: saline): 37 % of control

SMILES: O=c1[nH]cc(F)c(=O)[nH]1
- T/C (dose: 3.0 mg/kg/injection, schedule: Q01DX011 (ip), vehicle: carboxymethylcellulose (CMC)): 84 % of control
- T/C (dose: 3.3 mg/kg/injection, schedule: Q01DX011 (ip), vehicle: carboxymethylcellulose (CMC)): 101 % of control
- T/C [1]: 66 % of control and 44 % of control
- T/C (dose: 6.7 mg/kg/injection, schedule: Q01DX011 (ip), vehicle: carboxymethylcellulose (CMC)): 83 % of control
- T/C (dose: 13.5 mg/kg/injection, schedule: Q01DX011 (ip), vehicle: carboxymethylcellulose (CMC)): 69 % of control and 71 % of control
- T/C (dose: 18.0 mg/kg/injection, schedule: Q01DX011 (ip), vehicle: carboxymethylcellulose (CMC)): 93 % of control
- T/C (dose: 27.0 mg/kg/injection, schedule: Q01DX011 (ip), vehicle: carboxymethylcellulose (CMC)): 22 % of control and 28 % of control

SMILES: O=C1C=Cc2ccc(O)cc2C1=O
- T/C (dose: 1.25 mg/kg/injection, schedule: Q01DX011 (ip), vehicle: carboxymethylcellulose (CMC)): 108 % of control
- T/C (dose: 2.5 mg/kg/injection, schedule: Q01DX011 (ip), vehicle: carboxymethylcellulose (CMC)): 83 % of control
- T/C [2]: 102 % of control

SMILES: O=c1[nH]c2cc(Cl)c(Cl)cc2o1
- T/C [3]: 90 % of control
- T/C [4]: 81 % of control
- T/C [5]: 82 % of control
- T/C (dose: 150.0 mg/kg/injection, schedule: Q01DX011 (ip), vehicle: carboxymethylcellulose (CMC)): 77 % of control

SMILES: C1CC[N-]CC1.C1CC[N-]CC1.C1CC[N-]CC1.C1CC[N-]CC1.[Cl][Co][Cl]
- T/C [6]: 160 % of control

SMILES: O=CCC(O)C(O)C(O)CO (configuration not stated)
- T/C [7]: 89 % of control
- T/C [8]: 83 % of control
- T/C [9]: 48 % of control
- T/C (dose: 1000.0 mg/kg/injection, schedule: Q01DX011 (ip), vehicle: carboxymethylcellulose (CMC)): 63 % of control

SMILES: O=C(O)C1(NO)CCCC1
- T/C (dose: 12.5 mg/kg/injection, schedule: Q01DX011 (ip), vehicle: carboxymethylcellulose (CMC)): 98 % of control
- T/C [10]: 78 % of control
- T/C [11]: 18 % of control and 34 % of control

SMILES: CC1CN1C(=O)c1cc(C(=O)N2CC2C)cc(C(=O)N2CC2C)c1 (configuration not stated)
- T/C (dose: 15.0 mg/kg/injection, schedule: Q01DX011 (ip), vehicle: carboxymethylcellulose (CMC)): 70 % of control
- T/C (dose: 30.0 mg/kg/injection, schedule: Q01DX011 (ip), vehicle: carboxymethylcellulose (CMC)): 151 % of control
- T/C (dose: 60.0 mg/kg/injection, schedule: Q01DX011 (ip), vehicle: carboxymethylcellulose (CMC)): 47 % of control

SMILES: O=C(O)CCCc1ccc(N(CCCl)CCCl)cc1
- T/C (dose: 1.87 mg/kg/injection, schedule: Q01DX011 (ip), vehicle: carboxymethylcellulose (CMC)): 93 % of control
- T/C (dose: 7.5 mg/kg/injection, schedule: Q01DX011 (ip), vehicle: carboxymethylcellulose (CMC)): 76 % of control and 91 % of control

SMILES: CN(C)c1ccc(/C=C/c2ccnc3ccccc23)cc1
- T/C (dose: 37.5 mg/kg/injection, schedule: Q01DX011 (ip), vehicle: saline): 73 % of control
- T/C [12]: 51 % of control

SMILES: CCCCCCCCCCCC[n+]1c(C)cc(N)c2ccccc21
- T/C (dose: 0.1 mg/kg/injection, schedule: Q01DX011 (ip), vehicle: carboxymethylcellulose (CMC)): 182 % of control

SMILES: Nc1nc(SCc2ccccc2)c2[nH]cnc2n1
- T/C [13]: 84 % of control
- T/C (dose: 3.12 mg/kg/injection, schedule: Q01DX011 (ip), vehicle: saline): 25 % of control
- T/C [14]: 79 % of control
- T/C (dose: 6.25 mg/kg/injection, schedule: Q01DX011 (ip), vehicle: saline): 43 % of control
- T/C (dose: 8.0 mg/kg/injection, schedule: Q01DX011 (ip), vehicle: carboxymethylcellulose (CMC)): 99 % of control
- T/C [2]: 46 % of control

SMILES: COc1ccc2c(c1OC)C(=O)O[C@@H]2[C@H]1c2c(cc3c(c2OC)OCO3)CCN1C
- T/C [12]: 110 % of control
- T/C (dose: 100.0 mg/kg/injection, schedule: Q01DX011 (ip), vehicle: saline): 99 % of control
- T/C (dose: 200.0 mg/kg/injection, schedule: Q01DX011 (ip), vehicle: saline): 85 % of control

SMILES: CC(=O)[C@H]1CC[C@H]2[C@@H]3CCC4=CC(=O)CC[C@]4(C)[C@H]3CC[C@]12C
- T/C (dose: 250.0 mg/kg/injection, schedule: Q01DX011 (sc), vehicle: steriod suspending solution): 228 % of control
- T/C (dose: 500.0 mg/kg/injection, schedule: Q01DX011 (sc), vehicle: steriod suspending solution): 165 % of control
- T/C (dose: 750.0 mg/kg/injection, schedule: Q01DX011 (sc), vehicle: steriod suspending solution): 212 % of control
- T/C (dose: 1000.0 mg/kg/injection, schedule: Q01DX011 (sc), vehicle: steriod suspending solution): 291 % of control

SMILES: Clc1ccc2c(Cl)ncnc2c1
- T/C [3]: 96 % of control
- T/C [4]: 59 % of control
- T/C [5]: 31 % of control

SMILES: O=[n+]1c2c(n([O-])c3ccccc31)-c1cccc3cccc-2c13
- T/C [10]: 87 % of control
- T/C [6]: 55 % of control
- T/C [11]: 43 % of control

SMILES: C=CC(CN1CC1)OC(C)=O (configuration not stated)
- T/C (dose: 1.2 mg/kg/injection, schedule: Q01DX011 (ip), vehicle: carboxymethylcellulose (CMC)): 70 % of control
- T/C (dose: 2.4 mg/kg/injection, schedule: Q01DX011 (ip), vehicle: carboxymethylcellulose (CMC)): 89 % of control
- T/C (dose: 2.5 mg/kg/injection, schedule: Q01DX011 (ip), vehicle: saline): 50 % of control
- T/C (dose: 4.8 mg/kg/injection, schedule: Q01DX011 (ip), vehicle: carboxymethylcellulose (CMC)): 36 % of control
- T/C (dose: 5.0 mg/kg/injection, schedule: Q01DX011 (ip), vehicle: saline): 31 % of control
- T/C (dose: 7.5 mg/kg/injection, schedule: Q01DX011 (ip), vehicle: saline): 26 % of control
- T/C (dose: 9.9 mg/kg/injection, schedule: Q01DX011 (ip), vehicle: saline): 3 % of control

SMILES: NC(=O)n1cccn1
- T/C (dose: 25.0 mg/kg/injection, schedule: Q01DX011 (ip), vehicle: other): 107 % of control
- T/C (dose: 50.0 mg/kg/injection, schedule: Q01DX011 (ip), vehicle: other): 120 % of control
- T/C (dose: 100.0 mg/kg/injection, schedule: Q01DX011 (ip), vehicle: other): 78 % of control
- T/C (dose: 150.0 mg/kg/injection, schedule: Q01DX011 (ip), vehicle: other): 13 % of control
- T/C (dose: 200.0 mg/kg/injection, schedule: Q01DX011 (ip), vehicle: other): 28 % of control

SMILES: CC(C)CC1NC(=O)C(NC(=O)c2ncccc2O)C(C)OC(=O)C(c2ccccc2)N(C)C(=O)C(C)NC(=O)C(C(C)C(C)C)N(C)C(=O)CN(C)C(=O)C2CC(O)CN2C1=O (configuration not stated) ({Picolinoyl(3-OH)}-TL[Hyp][Sar][X1]A[NMePhg]; ester 1-C; configuration not given here)
- T/C [10]: 57 % of control
- T/C [6]: 49 % of control
- T/C [11]: 64 % of control
- T/C (dose: 200.0 mg/kg/injection, schedule: Q01DX011 (ip), vehicle: carboxymethylcellulose (CMC)): 39 % of control

SMILES: CC(CCC(C)OS(C)(=O)=O)OS(C)(=O)=O (configuration not stated)
- T/C (dose: 0.5 mg/kg/injection, schedule: Q01DX011 (ip), vehicle: carboxymethylcellulose (CMC)): 82 % of control
- T/C (dose: 1.0 mg/kg/injection, schedule: Q01DX011 (ip), vehicle: carboxymethylcellulose (CMC)): 91 % of control
- T/C [13]: 103 % of control
- T/C [14]: 105 % of control
- T/C [1]: 98 % of control
- T/C (dose: 6.25 mg/kg/injection, schedule: Q01DX011 (ip), vehicle: carboxymethylcellulose (CMC)): 56 % of control

SMILES: N#[N+]c1cnc([O-])[nH]c1=O
- T/C (dose: 1.3 mg/kg/injection, schedule: Q01DX011 (ip), vehicle: carboxymethylcellulose (CMC)): 113 % of control
- T/C (dose: 11.5 mg/kg/injection, schedule: Q01DX011 (ip), vehicle: carboxymethylcellulose (CMC)): 49 % of control

SMILES: NC(CO)C(=O)O (configuration not stated)
- T/C [8]: 108 % of control
- T/C [9]: 112 % of control

SMILES: CCn1cnc2c(SC)nc(N)nc21
- T/C [10]: 83 % of control
- T/C [6]: 73 % of control
- T/C [11]: 23 % of control

SMILES: OCC1OC(n2cnc3c(Cl)ncnc32)C(O)C1O (configuration not stated)
- T/C (dose: 62.0 mg/kg/injection, schedule: Q01DX011 (ip), vehicle: carboxymethylcellulose (CMC)): 93 % of control
- T/C [7]: 105 % of control
- T/C [8]: 109 % of control
- T/C [9]: 115 % of control
